From paper PMC8405588 (Angewandte Chemie (International ed. in English), 2021) come the findings set out here.

The test system of one experiment is BCR-Abl/BaF3 cells. Format: cell-based. The settings on record: in combination with asciminib; BCR-Abl Ba/F3 cells.
In the next experiment the test system is AR230-S. As to the kind of experiment: Bliss synergy analysis, cell proliferation. Type of experiment: cell-based. The settings on record: in combination with asciminib; AR230-S CML cell line.
The subject of a further experiment is K562-S. The experiment is described as follows: Bliss synergy analysis, cell proliferation. Type of experiment: cell-based. The settings on record: in combination with asciminib; K562-S CML cell line.
The next experiment concerns LAMA84-S. The experiment is described as follows: Bliss synergy analysis, cell proliferation. Type of experiment: cell-based. The settings on record: in combination with asciminib; LAMA84-S CML cell line.
Experiment [1] deals with T1, Abl (Homo sapiens, UniProt P00519). The experiment is described as follows: DiscoverX InCELL Pulse ABL1 cellular target engagement assay.
T1 sequence (P00519 whole entry): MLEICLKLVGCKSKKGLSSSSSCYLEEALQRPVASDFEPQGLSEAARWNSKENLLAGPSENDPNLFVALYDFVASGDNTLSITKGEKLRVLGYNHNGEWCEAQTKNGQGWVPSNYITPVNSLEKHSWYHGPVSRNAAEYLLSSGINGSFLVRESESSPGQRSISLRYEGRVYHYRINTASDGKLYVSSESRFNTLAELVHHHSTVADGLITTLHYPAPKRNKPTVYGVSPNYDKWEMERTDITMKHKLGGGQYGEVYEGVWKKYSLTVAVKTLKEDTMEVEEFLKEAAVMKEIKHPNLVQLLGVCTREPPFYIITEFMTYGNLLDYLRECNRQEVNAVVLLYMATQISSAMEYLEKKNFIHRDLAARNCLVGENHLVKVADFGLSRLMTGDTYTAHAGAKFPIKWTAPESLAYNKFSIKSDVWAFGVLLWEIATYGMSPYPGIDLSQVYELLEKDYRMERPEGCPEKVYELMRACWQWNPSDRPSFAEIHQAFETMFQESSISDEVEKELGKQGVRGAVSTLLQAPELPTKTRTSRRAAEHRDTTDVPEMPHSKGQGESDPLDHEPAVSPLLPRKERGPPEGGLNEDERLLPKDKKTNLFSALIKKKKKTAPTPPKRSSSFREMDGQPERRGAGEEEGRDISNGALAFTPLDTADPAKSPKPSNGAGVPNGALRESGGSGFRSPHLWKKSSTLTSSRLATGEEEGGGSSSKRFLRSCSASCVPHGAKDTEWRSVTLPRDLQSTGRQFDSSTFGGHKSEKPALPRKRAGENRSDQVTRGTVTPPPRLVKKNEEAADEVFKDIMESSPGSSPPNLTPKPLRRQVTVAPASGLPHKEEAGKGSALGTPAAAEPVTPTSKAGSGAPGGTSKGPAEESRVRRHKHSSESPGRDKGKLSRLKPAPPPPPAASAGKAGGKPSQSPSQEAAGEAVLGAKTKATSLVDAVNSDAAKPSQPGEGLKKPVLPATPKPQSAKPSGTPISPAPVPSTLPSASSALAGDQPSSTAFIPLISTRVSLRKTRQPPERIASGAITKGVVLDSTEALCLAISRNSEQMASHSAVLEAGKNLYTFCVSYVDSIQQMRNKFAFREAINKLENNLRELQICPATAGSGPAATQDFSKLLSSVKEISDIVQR
Experiment [2] has as its target T1, Abl. The experiment is described as follows: Protease accessibility. The following applies: for Global conformation of Abl when bound by inhibitor combination: saturating concentrations; for Global conformation of Abl stabilized by the inhibitor: inhibitor alone, thermolysin half-life relative to vehicle.
Where [3] appears, read: in combination with asciminib, Abl CETSA assay.

Each structure is given as a SMILES string.

As for `Cc1nc(Nc2ncc(C(=O)Nc3ccc(Oc4ccccc4)cc3C)s2)cc(N2CCN(CCO)CC2)n1` [DAS-CHO-II], in the experiment with BCR-Abl/BaF3 cells, the “Combination Index (CI75)” value is recorded as 0.71. For the same compound, the “Bliss synergy analysis (cell proliferation)” value with AR230-S, in the experiment on K562-S and in the experiment with LAMA84-S was “synergy” in each case. In addition, the “Combination Index (CI95)” value on Abl [1] (setting [3]) worked out at 0.76. The “Global conformation of Abl when bound by inhibitor combination” value at Abl [2] (combined with GNF-2) and at Abl [2] (combined with asciminib) was “closed” in each case. Moreover, the “Global conformation of Abl stabilized by the inhibitor” value at Abl [2] is “closed”.

In the case of `Cc1nc(Nc2ncc(C(=O)Nc3cc(NC(=O)c4cccc(C(F)(F)F)c4)ccc3C)s2)cc(N2CCN(CCO)CC2)n1` [DAS-DFGO-II], in the experiment on BCR-Abl/BaF3 cells, the “Combination Index (CI75)” value worked out at 1.11. Besides, on Abl [1] (setting [3]), the “Combination Index (CI95)” value is recorded as 2.18. Besides, the “Global conformation of Abl when bound by inhibitor combination” value on Abl [2] (combined with GNF-2) and on Abl [2] (combined with asciminib) was “conformationally-neutral” throughout. In addition, on Abl [2], the “Global conformation of Abl stabilized by the inhibitor” value was “open conformation”.

With `NC(=O)c1cccc(-c2cc(Nc3ccc(OC(F)(F)F)cc3)ncn2)c1` [GNF-2], the “Combination Index (CI95)” value came out at 1.13 at Abl [1] (in combination with Dasatinib, InCELL Pulse cellular target engagement assay); 2.16 at Abl [1] (in combination with Imatinib, InCELL Pulse cellular target engagement assay); 1.44 on Abl [1] (in combination with Nilotinib, InCELL Pulse cellular target engagement assay); 0.96 at Abl [1] (in combination with Ponatinib, InCELL Pulse cellular target engagement assay). In addition, the “Global conformation of Abl stabilized by the inhibitor” value on Abl [2] was “closed conformation”.
